Reference: patent US7585875B2, “Substituted pyrazolo[1,5-a]pyridine compounds and their methods of use” (Avigen, Inc., priority 2006, dated 2009)

Legend:
[1] = test system: mechanical allodynia after chronic constriction injury (CCI) to the sciatic nerve; assay: Mechanical allodynia by response to von Frey fibers, rat chronic constriction injury (CCI) model; assay type: in vivo, male Sprague-Dawley rats; settings: 10 mg/kg IP, 2 hr post dosing
How it was run: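 Male Sprague-Dawley rats with unilateral CCI (four loose ligatures around the right sciatic nerve; left side sham). 50% paw withdrawal threshold to von Frey filaments was measured blinded before and 2 h after a single i.p. dose (n=5-6). Value is the change from pre-dosing baseline.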

[2] = biological target: phosphodiesterase (PDE) enzyme derived from bovine brain; assay: Inhibition of PDE (PDELight kit, cAMP substrate); assay type: biochemical; settings: PDE from brain extract, cAMP as substrate
Experimental: In a 96-well plate, phosphodiesterase (PDE) enzyme (0.5-1 mU/well) derived from bovine brain (Sigma) was combined with 5 uM cAMP substrate (Sigma). Test compounds (0-200 uM) or vehicle (0.5% DMSO) were added to the enzyme/substrate and incubated for 1 hour. Using a PDELight® kit (Cambrex), the amount of AMP produced in the reaction from the hydrolysis of cAMP was quantified using PDELight AMP Detection Reagent which converts the AMP directly to ATP. The assay uses luciferase, which catalyses the formation of light from the newly formed ATP and luciferin. The luminescence was read on a Victor Light 1420 luminometer. IC50 calculations were plotted using a nonlinear regression curve fit.

[3] = test system: IL-1β production in LPS-stimulated human peripheral blood mononuclear cells; assay: Inhibition of LPS-stimulated IL-1β release from PBMCs; assay type: cell-based; settings: PBMC, LPS-stimulated cytokine release from PBMCs
Experimental: (§1) IC50 values were determined for representative compounds of the invention based upon their ability to inhibit LPS-induced cytokine production in human peripheral blood mononuclear cells. Human PBMCs (peripheral blood mononuclear cells) were isolated over a Ficoll gradient from buffy coats obtained from the local Red Cross. 10^6 PBMC cells/well were seeded in 24-well tissue culture plates in RPMI 1640 medium supplemented with 10% human serum, hepes buffer and sodium pyruvate. The cells were treated with 0.1% DMSO (vehicle) or test compounds (1, 10, and 100 uM) 30 minutes prior to activation with LPS (lipopolysaccharide) (E. Coli) at 10 ng/mL. 6-10 hours post LPS stimulation the culture supernatants were collected and levels of cytokines TNF-α and IL-1β were quantified by ELISA (R&D Systems) and/or Luminex (Linco Diagnostics). IC50 calculations were plotted using a nonlinear regression curve fit for exemplary substituted pyrazolo[1,5-a]pyridine compounds of the invention; results are provided in Table 2.

[4] = test system: TNF-α production in LPS-stimulated human peripheral blood mononuclear cells; assay: Inhibition of LPS-stimulated TNF-α release from PBMCs; assay type: cell-based; settings: PBMC, LPS-stimulated cytokine release from PBMCs, read-out: TNF-α (IC50)
Experimental: as §1

IC50 [2]: > 200 µM
melting point: 69 °C
IC50 [3]: > 100 µM
IC50 [4]: > 100 µM
SMILES: CC(C)c1nn2ccccc2c1C(O)C(C)C (centres unmarked) [Compound 1002, 1-(2-isopropylpyrazolo[1,5-a]pyridin-3-yl)-2-methylpropan-1-ol]
Mechanical Allodynia ΔWT (change from pre-dosing 50% withdrawal threshold) [1]: 0.79 grams
